Reference: patent US9809562B2, “NAT10 modulators for treating or preventing laminopathies, aging and cancer” (CAMBRIDGE ENTERPRISE LIMITED, priority 2014, dated 2017)
Counter-ions that a name gives are not always drawn.

Assays:
[1] = test system: siLMNA cells; assay: Cell cycle profile by flow cytometry; format: cell-based, human
Description: 10 μM EdU was incubated for 2 hours when indicated. Cells were fixed in 4% paraformaldehyde (Sigma-Aldrich). EdU was fluorescently labeled using the Click-iT® EdU Flow Cytometry Assay Kit (Life Sciences). DNA was stained with […] propidium iodide (Sigma-Aldrich) in phosphate buffer solution (PBS) containing 0.1% Triton-X-100 and 0.5 mg ml^−1 DNase free RNase A (Sigma-Aldrich). Samples were processed on a FACSCalibur flow cytometer equipped with CellQuest software (Becton Dickinson). Results were analysed using FlowJo software (TreeStar).

[2] = biological target: T1, NAT10 purified from HEK293 cells (Homo sapiens, UniProt Q9H0A0); assay: Lysine acetyltransferase (KAT) assay with tubulin substrate; format: biochemical; details: compounds at 50 μM
T1 construct: made in house; host or cells: HEK293 (transient transfection, anti-FLAG immunopurification, elution with triple-Flag peptide)
T1 sequence (Q9H0A0 1-1025): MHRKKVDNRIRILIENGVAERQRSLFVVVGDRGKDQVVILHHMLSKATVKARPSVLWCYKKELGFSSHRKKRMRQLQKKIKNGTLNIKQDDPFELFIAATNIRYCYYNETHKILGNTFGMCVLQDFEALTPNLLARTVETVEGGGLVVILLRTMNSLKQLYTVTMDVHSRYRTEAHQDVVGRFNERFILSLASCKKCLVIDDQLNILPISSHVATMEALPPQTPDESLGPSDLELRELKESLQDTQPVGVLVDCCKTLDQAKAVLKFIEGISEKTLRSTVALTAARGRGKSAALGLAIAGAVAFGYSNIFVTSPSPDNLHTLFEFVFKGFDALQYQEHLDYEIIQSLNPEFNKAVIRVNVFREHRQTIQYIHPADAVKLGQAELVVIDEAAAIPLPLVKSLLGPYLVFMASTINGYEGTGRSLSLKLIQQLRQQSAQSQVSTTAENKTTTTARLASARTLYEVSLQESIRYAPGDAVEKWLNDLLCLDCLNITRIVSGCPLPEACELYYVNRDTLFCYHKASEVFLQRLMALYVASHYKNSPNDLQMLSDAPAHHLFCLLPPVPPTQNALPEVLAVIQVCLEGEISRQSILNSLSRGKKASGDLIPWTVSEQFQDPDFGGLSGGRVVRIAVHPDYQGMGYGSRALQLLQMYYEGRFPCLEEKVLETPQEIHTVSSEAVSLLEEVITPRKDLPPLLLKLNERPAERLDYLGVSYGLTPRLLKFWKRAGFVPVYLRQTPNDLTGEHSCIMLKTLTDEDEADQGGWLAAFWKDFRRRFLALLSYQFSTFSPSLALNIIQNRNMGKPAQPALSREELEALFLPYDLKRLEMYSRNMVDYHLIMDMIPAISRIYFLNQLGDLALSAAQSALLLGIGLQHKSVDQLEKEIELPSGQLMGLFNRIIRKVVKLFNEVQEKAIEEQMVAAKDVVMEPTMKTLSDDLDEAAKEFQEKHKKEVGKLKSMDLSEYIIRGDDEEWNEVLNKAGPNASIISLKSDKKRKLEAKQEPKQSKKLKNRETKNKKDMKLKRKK
Description: HEK293 cells were transiently transfected with NAT10 constructs and harvested after 48 hours in PBS. Cells were lysed for 5 minutes at room temperature in IP lysis buffer (20 mM Tris pH 7.5, 40 mM NaCl, 2 mM MgCl2, 0.5% NP-40) freshly supplemented with 50 U/ml benzonase and EDTA-free protease inhibitor cocktail (Roche). After this initial lysis step, NaCl concentration was adjusted to 450 mM and samples were incubated at 4° C. with rotation. Lysates were clarified by centrifugation (13,200 rpm, 20 minutes at 4° C.), and after recovery NaCl concentration was equilibrated to 150 mM. Lysates were used for immunoprecipitation reaction in IP buffer (25 mM Tris pH 7.5, 150 mM NaCl, 1.5 mM DTT, 10% glycerol, 0.5% NP-40) supplemented with protease inhibitors. Target proteins were captured with anti-FLAG antibody (M2, Sigma-Aldrich) coupled to protein A/G-Dynabeads (Life Sciences). Complexes were washed with IP buffer containing incrementally increasing amounts of NaCl (250 mM, 500 mM, and 1M). Following this, the immuno-complexes were washed in TBS containing gradually decreasing amounts on NaCl (1M, 500 mM, 250 mM, and 150 mM). At this point, elution was carried out using excess triple-Flag peptide (Sigma Aldrich). Eluted proteins were loaded on a gel and the purification was verified by Silver Staining (SilverQuest kit, Life Sciences). […]

[3] = test system: cancer cell lines with low or high Lamin A/C expression; assay: Population doubling time of cancer cell lines; format: cell-based, human
Description: FIG. 15: Compound 2 inhibits the proliferation, migration and invasion of cancer cells with low Lamin A/C expression. […] C) Quantification of transwell migration assays and matrigel invasion assays from the indicated low expressing cancer cell lines after treatment with 50 μM of compound 2.

[4] = Stability on exposure to light or air; format: physicochemical
[5] = A431 proliferation assay (IncuCyte ZOOM); format: cell-based, human
Description: A431 cells expressing a low level of Lamin A protein (see FIG. 2) were plated at low density and treated with the indicated concentration of Compound 2. Cell growth was monitored automatically over time using an IncuCyte ZOOM®.

[6] = In vivo toxicity, body weight change; details: mice, oral daily dose for 14 days

Row | NAT10 WT KAT activity towards tubulin [2] | SMILES | accumulation of cells in mitosis [1] | proliferation of cells expressing high levels of lamin A/C ([3]; up to 50 μM) | stability [4] | reduction of A431 proliferation ([5]; 10 μM) | effect on cell cycle profile ([1]; siLMNA cells) | population doubling time, sensitivity by Lamin A level ([3]; 50 μM for 1 week) | A431 cell growth ([5]; indicated concentrations, growth monitored over time) | tolerability (body weight change) [6]
1 | abolished NAT10 WT KAT activity | N#Cc1ccc(-c2csc(NN=C3CCCC3)n2)cc1 [Compound 1, 4-(4-Cyanophenyl)-2-(2-cyclopentylidenehydrazinyl)thiazole] | cells did not accumulate in mitosis | not affected by up to 50 μM Remodelin | most potent and stable analogue of the series | about 50% |  |  |  | 
2 |  | Clc1ccc(-c2csc(NN=C3CCCC3)n2)cc1 [Compound 2, 4-(4-Chlorophenyl)-2-(2-cyclopentylidenehydrazinyl)thiazole Hydrochloride Salt] |  |  | rapidly degraded upon exposure to light or air |  | without markedly affecting the cell cycle profile | cells expressing low levels of Lamin A are more sensitive to the molecule | inhibited in a dose-dependent manner | well tolerated orally, up to high doses of 400 mg/kg/day, without significant decrease of body weight
3 | abolished NAT10 WT KAT activity | C#CCN(N=C1CCCC1)c1nc(-c2ccc(Cl)cc2)cs1 [Compound 3, 4-(4-Chlorophenyl)-2-(2-cyclopentylidene-1-(prop-2-yn-1-yl)hydrazinyl)thiazole] |  |  |  |  |  |  |  | 
